The target of data set [1] is T1, CREB / HA-CRTC2 interaction (Mus musculus, UniProt Q01147).
T1 construct: expressed in transfected cells; host or cells: mouse primary hepatocytes infected with Ad-HA-Crtc2; CREB is endogenous
The data set can be described thus: Co-immunoprecipitation of HA-CRTC2 with endogenous CREB, primary hepatocytes. Type of data set: cell-based. The following applies: for HA/CREB in CREB-COIP fraction: Fig 2b replicates, AD-HA-CRTC2 +. The procedure:
Fig. 2 APC blocks interaction between CREB and CRTC2. a Analysis of GST-CREB immunoprecipitated with overexpressed FLAG-CRTC2 from the lysates of HEK293T cells. APC (10 μM) was added to the culture media for 1 h and the following IP mixture. The relative gray density of FLAG in GST-pull-down fraction is shown as a bar graph (bottom). One of three independent experiments is presented (top, n = 3). Data are represented as mean ± SEM); P values were determined by one-way ANOVA followed Dunnett’s multiple comparisons test. b Analysis of HA-CRTC2 immunoprecipitated with endogenous CREB from primary hepatocyte lysates. APC (10 μM) was added to the culture media for 1-h before 30-min of stimulation with glucagon (Gluc, 100 nM) and the following IP mixture as indicated. Top panel presents one of three independent experiments, and the relative gray density of HA in CREB-IP-faction is shown as a bar graph (bottom, n = 3). Data are represented as mean ± SEM; P values were determined by one-way ANOVA followed Dunnett’s multiple comparisons test. c Immunoblotting analysis of endogenous CREB, CRTC2, and CBP interaction by an anti-CRTC2 antibody from the lysate of primary hepatocytes. APC (10 μM) was added to the culture media for 1-h before 30-min stimulation with glucagon. Related CREB and CBP normalized by CRTC2, respectively, in CRTC2-IP fractions. The top panel presents one of three independent experiments, and the relative gray density of CREB and CBP normalized to CRTC2 in the CRTC2-IP-faction is shown as a bar graph (bottom, n = 3). Data are represented as mean ± SEM; P values were determined by two-way ANOVA followed Bonferroni’s multiple comparisons test. d Immunoblotting analysis of protein GST-CREB recovered HIS-CRTC2-S171A proteins purified from E. coli. The addition of APC (5, 10, or 50 μM) in pull-down mixtures is indicated. The top part presents one of three independent experiments, and the relative gray density of HIS normalized to GST in GST-pull-down faction is shown as a bar graph (bottom, n = 3). Data are represented as mean ± SEM; P values were determined by one-way ANOVA followed Dunnett’s multiple comparisons test (compared with APC = 0).
Immunoblotting and immunoprecipitation assays were performed as previously described, with antibodies recognizing CREB, Ser133-P-CREB, AMPK, P-AMPK, AKT, P-AKT (Cell Signaling), PGC-1α (Merck), CRTC2 (Calbiochem), PCK1 (Santa Cruz), SREBP1 (Santa Cruz), SREBP2 (BD), HA (Convance), LXRα (Santa Cruz), FLAG (Sigma), GST (Covance), HIS (Abmart), GAPDH (AOGMA), α-TUBULIN (Abmart), β-ACTIN (Abmart), and other antibodies (Supplementary Table 3). For immunostaining assays, primary cultured hepatocytes seeded on coverslips were fixed with 4% paraformaldehyde for 20 min, permeabilized with 0.3% Triton X-100 in PBS, and then blocked by 5% normal goat serum and 0.3% Triton X-100 in PBS, followed by incubation with anti-CREB (1:1000), anti-P-CREB (1:1000), or anti-HA (1:3000) antibodies for 1 h at 4 °C. Slides were then washed, and after washing, slides were incubated with fluorochrome-conjugated secondary antibodies (Invitrogen). Slides were then washed and mounted with Vectashield mounting media containing 4, 6-diamidino-2-phenylindole (DAPI).

For data set [2], the target named is T2, endogenous CREB / CRTC2 interaction (Mus musculus, UniProt Q01147).
T2 construct: endogenous in cells; host or cells: mouse primary hepatocytes
The data set can be described thus: Co-immunoprecipitation by anti-CRTC2 antibody, primary hepatocytes: CREB. Type of data set: cell-based. The procedure:
Fig. 2 APC blocks interaction between CREB and CRTC2. a Analysis of GST-CREB immunoprecipitated with overexpressed FLAG-CRTC2 from the lysates of HEK293T cells. APC (10 μM) was added to the culture media for 1 h and the following IP mixture. The relative gray density of FLAG in GST-pull-down fraction is shown as a bar graph (bottom). One of three independent experiments is presented (top, n = 3). Data are represented as mean ± SEM); P values were determined by one-way ANOVA followed Dunnett’s multiple comparisons test. b Analysis of HA-CRTC2 immunoprecipitated with endogenous CREB from primary hepatocyte lysates. […] Data are represented as mean ± SEM; P values were determined by one-way ANOVA followed Dunnett’s multiple comparisons test. c Immunoblotting analysis of endogenous CREB, CRTC2, and CBP interaction by an anti-CRTC2 antibody from the lysate of primary hepatocytes. […] Data are represented as mean ± SEM; P values were determined by two-way ANOVA followed Bonferroni’s multiple comparisons test. d Immunoblotting analysis of protein GST-CREB recovered HIS-CRTC2-S171A proteins purified from E. coli. […] Data are represented as mean ± SEM; P values were determined by one-way ANOVA followed Dunnett’s multiple comparisons test (compared with APC = 0). […]

Data set [3] is described as follows: Pharmacokinetic studies. The conditions noted are these: ICR mice; for half-life: ICR. In kind it is in vivo, mouse. Here is the method: Male ICR mice (18–20 g, n = 3 in each group) were randomly assigned to treatment groups. After 12-h of fasting, baseline blood was collected into a tube containing ethylenediaminetetraacetic acid (EDTA). Animals were then treated orally with compound A57 or APC (p.o.: 20 mg/kg, in DMSO/0.5% HPMC 5/95, v/v) and intravenous injected the selected compounds (i.v.: 2 mg/kg, in DMSO/EtOH/PEG300/NaCl 5/5/40/50, v/v/v/v). Subsequently, blood samples per mouse were collected at 0.25, 0.5, 1, 2, 4, 8, 24 h for p.o.-treated groups and 0.05, 0.25, 0.75, 2, 4, 6, 8, 24 h for i.v.-treated groups. All samples were centrifuged at 12,000 rpm for 3 min, and the plasma was harvested. Aliquots of plasma samples were stored at −80 °C until analysis. The selected compounds' serum concentrations were determined by liquid chromatography/tandem mass spectrometry (LC–MS–MS). Pharmacokinetic parameters were determined from the selected compounds' serum concentrations by noncompartmental methods using WinNonLin professional version 4.1 (Pharsight Corp., Mountain View, CA).

Setting [4] is: male, mouse, plasma, iv, i.v. 2 mg/kg.
Where [5] appears, read: male, mouse, plasma, po, p.o. 20 mg/kg.

These results are taken from publication PMC8752738, “A propolis-derived small molecule ameliorates metabolic syndrome in obese mice by targeting the CREB/CRTC2 transcriptional complex” (Nature Communications, 2022).

The structures appear in SMILES notation. Values joined by “and” are separate entries in the source; they are usually repeats but may differ in a detail not shown here. Identical values can stand only once.

T1 sequence (Q01147 whole entry): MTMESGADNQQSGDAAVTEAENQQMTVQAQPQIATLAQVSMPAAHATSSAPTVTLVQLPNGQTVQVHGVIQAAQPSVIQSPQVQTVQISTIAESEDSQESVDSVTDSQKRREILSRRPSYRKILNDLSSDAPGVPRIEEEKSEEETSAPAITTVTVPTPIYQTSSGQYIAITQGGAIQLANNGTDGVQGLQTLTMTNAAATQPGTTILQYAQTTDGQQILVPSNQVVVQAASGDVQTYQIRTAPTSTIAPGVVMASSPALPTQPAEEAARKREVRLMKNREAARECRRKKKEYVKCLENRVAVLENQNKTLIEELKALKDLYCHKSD
T2 sequence (Q01147 whole entry): as above

One may read the half-life as the time in which the quantity being followed falls by half. A high value points to slow loss. By AUC(0-t) is commonly meant the area under the concentration-time curve up to a stated or last time point. As usually defined, the MRT is a mean duration of stay, worked out from the concentration-time curve. As a reminder, the clearance is the volume of plasma or blood freed of the substance per unit of time. For orientation: Cmax means the highest concentration seen after dosing. Usually Tmax stands for the time from dosing to the highest level. For `CC(C)=CCc1cc(C=CC(=O)O)cc(CC=C(C)C)c1O` [APC, 3,5-diprenyl-4-hydroxycinnamic acid], the “HA/CREB in CREB-COIP fraction” value was 93.4971 and 123.554 and 124.784 in data set [1] (APC +, Gluc +, APC in IP system +); 234.39 and 222.083 and 222.525 in data set [1] (APC +, Gluc +, APC in IP system -); 106.115 and 87.7697 and 106.142 in data set [1] (APC +, Gluc -, APC in IP system +); 166.202 and 169.06 and 171.069 in data set [1] (APC +, Gluc -, APC in IP system -); 192.388 and 190.79 and 193.652 in data set [1] (APC -, Gluc +, APC in IP system +); 107.959 and 107.638 and 128.065 in data set [1] (APC -, Gluc -, APC in IP system +). Also, in data set [1] (primary hepatocytes, with or without glucagon, APC 10 μM), the “HA-tagged CRTC2 immunoprecipitated by anti-CREB antibody” value is recorded as “greatly decreased”. In addition, in data set [2] (Fig 2c replicates, APC+ (10 μM)), the “CREB/CRTC2 band gray signal, CRTC2-COIP fraction” value was 0.6304 and 0.625 and 0.6291. Also, the “endogenous CREB co-immunoprecipitated by anti-CRTC2 antibody” value in data set [2] (primary hepatocyte lysates, APC 10 μM) was “significantly decreased”. The same compound returned a Fpo in data set [3] (p.o. 20 mg/kg vs i.v. 2 mg/kg) of 14.4%. Moreover, the T1/2 in data set [3] (p.o. 20 mg/kg, 20 mg/kg) is 3.29 h. The half-life is 5.89 h in data set [3] (male, mouse, plasma, iv, 2 mg/kg, i.v. 2 mg/kg) and 2.11 h in data set [3] (male, mouse, plasma, po, 20 mg/kg, p.o. 20 mg/kg). Besides, the AUC(0-t) in data set [3] (setting [4]) is 428 ng·h/mL; in data set [3] (setting [5]), 616 ng·h/mL. The MRT amounted to 2.46 h in data set [3] (setting [4]) and 4.33 h in data set [3] (setting [5]). Moreover, the clearance in data set [3] (setting [4]) is 78 mL/min/kg. The same compound displayed a Cmax in data set [3] (setting [5]) of 510 ng/mL. Besides, in data set [3] (setting [5]), the Tmax amounted to 0.25 h.
